How the values were obtained:
Test in all cases: relative viability (nuclei count vs DMSO), 5 days (fraction); higher = more cells survive
NCI-H661 = system: NCI-H661
Procedure, shortened: (§1)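 For relative viability, nuclei counts in treated wells were divided by those in vehicle wells. Lung cancer cell lines had been pin-tool dosed in 1536-well plates the day after seeding and cultured for 5 days, then fixed and stained in one step (final 0.05% Triton X-100, 1% formaldehyde, 1 ug/ml Hoechst) and imaged at 4×. Doses were one drug alone or a fixed anchor-drug dose plus five library-drug doses (not always all listed) in √10 steps, and values are duplicate-plate medians.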

A549 = system: A549
Procedure, shortened: as §1

Calu-6 = system: Calu-6
Procedure, shortened: as §1

NCI-H2342 = system: NCI-H2342
Procedure, shortened: as §1

NCI-H1703 = system: NCI-H1703
Procedure, shortened: as §1

HCC-78 = system: HCC-78
Procedure, shortened: as §1

NCI-H2009 = system: NCI-H2009
Procedure, shortened: as §1

NCI-H1623 = system: NCI-H1623
Procedure, shortened: as §1

EBC-1 = system: EBC-1
Procedure, shortened: as §1

NCI-H1299 = system: NCI-H1299
Procedure, shortened: as §1

IA-LM = system: IA-LM
Procedure, shortened: as §1

NCI-H460 = system: NCI-H460
Procedure, shortened: as §1

SMILES: O=c1cc(-c2cccc3c2Sc2ccccc2S3)oc(N2CCOCC2)c1 + COc1cc2c(Oc3ccc(NC(=O)C4(C(=O)Nc5ccc(F)cc5)CC4)cc3F)ccnc2cc1OCCCN1CCOCC1 [Foretinib] (partner 0.25 µM)
- relative viability (NCI-H661; first compound 0.08 µM): 1.02
- relative viability (NCI-H661; first compound 0.253 µM): 1.02
- relative viability (NCI-H661; first compound 0.8 µM): 0.92
- relative viability (NCI-H661; first compound 2.53 µM): 0.952
- relative viability (NCI-H661; first compound 8 µM): 1
- relative viability (A549; first compound 0.08 µM): 1
- relative viability (A549; first compound 0.253 µM): 1.06
- relative viability (A549; first compound 0.8 µM): 1.15
- relative viability (A549; first compound 2.53 µM): 0.978
- relative viability (A549; first compound 8 µM): 1.03
- relative viability (Calu-6; first compound 0.08 µM): 0.916
- relative viability (Calu-6; first compound 0.253 µM): 0.963
- relative viability (Calu-6; first compound 0.8 µM): 0.932
- relative viability (Calu-6; first compound 2.53 µM): 0.867
- relative viability (Calu-6; first compound 8 µM): 0.799
- relative viability (NCI-H2342; first compound 0.08 µM): 0.996
- relative viability (NCI-H2342; first compound 0.253 µM): 1.04
- relative viability (NCI-H2342; first compound 0.8 µM): 0.916
- relative viability (NCI-H2342; first compound 2.53 µM): 0.917
- relative viability (NCI-H2342; first compound 8 µM): 1.11
- relative viability (NCI-H1703; first compound 0.08 µM): 0.348
- relative viability (NCI-H1703; first compound 0.253 µM): 0.421
- relative viability (NCI-H1703; first compound 0.8 µM): 0.273
- relative viability (NCI-H1703; first compound 2.53 µM): 0.321
- relative viability (NCI-H1703; first compound 8 µM): 0.334
- relative viability (HCC-78; first compound 0.08 µM): 0.515
- relative viability (HCC-78; first compound 0.253 µM): 0.561
- relative viability (HCC-78; first compound 0.8 µM): 0.519
- relative viability (HCC-78; first compound 2.53 µM): 0.514
- relative viability (HCC-78; first compound 8 µM): 0.498
- relative viability (NCI-H2009; first compound 0.08 µM): 1.23
- relative viability (NCI-H2009; first compound 0.253 µM): 1.21
- relative viability (NCI-H2009; first compound 0.8 µM): 1.15
- relative viability (NCI-H2009; first compound 2.53 µM): 1.12
- relative viability (NCI-H2009; first compound 8 µM): 1.19
- relative viability (NCI-H1623; first compound 0.08 µM): 0.834
- relative viability (NCI-H1623; first compound 0.253 µM): 0.865
- relative viability (NCI-H1623; first compound 0.8 µM): 0.765
- relative viability (NCI-H1623; first compound 2.53 µM): 0.866
- relative viability (NCI-H1623; first compound 8 µM): 0.917
- relative viability (EBC-1; first compound 0.08 µM): 0.106
- relative viability (EBC-1; first compound 0.253 µM): 0.0935
- relative viability (EBC-1; first compound 0.8 µM): 0.104
- relative viability (EBC-1; first compound 2.53 µM): 0.105
- relative viability (EBC-1; first compound 8 µM): 0.111
- relative viability (NCI-H1299; first compound 0.08 µM): 1.09
- relative viability (NCI-H1299; first compound 0.253 µM): 1.13
- relative viability (NCI-H1299; first compound 0.8 µM): 1.15
- relative viability (NCI-H1299; first compound 2.53 µM): 1.09
- relative viability (NCI-H1299; first compound 8 µM): 1.1
- relative viability (IA-LM; first compound 0.08 µM): 1.45
- relative viability (IA-LM; first compound 0.253 µM): 1.33
- relative viability (IA-LM; first compound 0.8 µM): 1.32
- relative viability (IA-LM; first compound 2.53 µM): 1.04
- relative viability (IA-LM; first compound 8 µM): 1.23
- relative viability (NCI-H460; first compound 0.08 µM): 1.04
- relative viability (NCI-H460; first compound 0.253 µM): 1.01
- relative viability (NCI-H460; first compound 0.8 µM): 0.963
- relative viability (NCI-H460; first compound 2.53 µM): 1.02
- relative viability (NCI-H460; first compound 8 µM): 1.13

SMILES: O=c1cc(N2CCOCC2)oc2c(-c3cccc4c3sc3ccccc34)cccc12 + COc1cc2c(Oc3ccc(NC(=O)C4(C(=O)Nc5ccc(F)cc5)CC4)cc3F)ccnc2cc1OCCCN1CCOCC1 [Foretinib] (partner 0.25 µM)
- relative viability (NCI-H661; first compound 0.01 µM): 0.996
- relative viability (NCI-H661; first compound 0.03162 µM): 1.05
- relative viability (NCI-H661; first compound 0.1 µM): 1.03
- relative viability (NCI-H661; first compound 0.3162 µM): 0.947
- relative viability (NCI-H661; first compound 1 µM): 1.03
- relative viability (A549; first compound 0.01 µM): 0.936
- relative viability (A549; first compound 0.03162 µM): 1
- relative viability (A549; first compound 0.1 µM): 0.99
- relative viability (A549; first compound 0.3162 µM): 0.912
- relative viability (A549; first compound 1 µM): 0.994
- relative viability (Calu-6; first compound 0.01 µM): 0.932
- relative viability (Calu-6; first compound 0.03162 µM): 0.895
- relative viability (Calu-6; first compound 0.1 µM): 0.891
- relative viability (Calu-6; first compound 0.3162 µM): 0.888
- relative viability (Calu-6; first compound 1 µM): 0.839
- relative viability (NCI-H2342; first compound 0.01 µM): 1.04
- relative viability (NCI-H2342; first compound 0.03162 µM): 1.11
- relative viability (NCI-H2342; first compound 0.1 µM): 0.997
- relative viability (NCI-H2342; first compound 0.3162 µM): 1.04
- relative viability (NCI-H2342; first compound 1 µM): 1.07
- relative viability (NCI-H1703; first compound 0.01 µM): 0.333
- relative viability (NCI-H1703; first compound 0.03162 µM): 0.314
- relative viability (NCI-H1703; first compound 0.1 µM): 0.352
- relative viability (NCI-H1703; first compound 0.3162 µM): 0.371
- relative viability (NCI-H1703; first compound 1 µM): 0.296
- relative viability (HCC-78; first compound 0.01 µM): 0.492
- relative viability (HCC-78; first compound 0.03162 µM): 0.457
- relative viability (HCC-78; first compound 0.1 µM): 0.544
- relative viability (HCC-78; first compound 0.3162 µM): 0.581
- relative viability (HCC-78; first compound 1 µM): 0.533
- relative viability (NCI-H2009; first compound 0.01 µM): 1.19
- relative viability (NCI-H2009; first compound 0.03162 µM): 1.21
- relative viability (NCI-H2009; first compound 0.1 µM): 1.23
- relative viability (NCI-H2009; first compound 0.3162 µM): 1.22
- relative viability (NCI-H2009; first compound 1 µM): 1.11
- relative viability (NCI-H1623; first compound 0.01 µM): 0.84
- relative viability (NCI-H1623; first compound 0.03162 µM): 0.9
- relative viability (NCI-H1623; first compound 0.1 µM): 0.559
- relative viability (NCI-H1623; first compound 0.3162 µM): 0.849
- relative viability (NCI-H1623; first compound 1 µM): 0.862
- relative viability (EBC-1; first compound 0.01 µM): 0.0963
- relative viability (EBC-1; first compound 0.03162 µM): 0.0939
- relative viability (EBC-1; first compound 0.1 µM): 0.0965
- relative viability (EBC-1; first compound 0.3162 µM): 0.128
- relative viability (EBC-1; first compound 1 µM): 0.102
- relative viability (NCI-H1299; first compound 0.01 µM): 1.04
- relative viability (NCI-H1299; first compound 0.03162 µM): 1.11
- relative viability (NCI-H1299; first compound 0.1 µM): 1.08
- relative viability (NCI-H1299; first compound 0.3162 µM): 1.13
- relative viability (NCI-H1299; first compound 1 µM): 1.04
- relative viability (IA-LM; first compound 0.01 µM): 1.1
- relative viability (IA-LM; first compound 0.03162 µM): 1.11
- relative viability (IA-LM; first compound 0.1 µM): 1.23
- relative viability (IA-LM; first compound 0.3162 µM): 1.06
- relative viability (IA-LM; first compound 1 µM): 1.25
- relative viability (NCI-H460; first compound 0.01 µM): 0.981
- relative viability (NCI-H460; first compound 0.03162 µM): 1.03
- relative viability (NCI-H460; first compound 0.1 µM): 0.987
- relative viability (NCI-H460; first compound 0.3162 µM): 0.985
- relative viability (NCI-H460; first compound 1 µM): 1.04
